Laboratory results taken from patent US11117894B2, “Pyridopyrazine compounds and uses thereof” (CITY OF HOPE, priority 2017, dated 2021).

Tests used:
[1] = test system: A2058 melanoma; test: MTS cell viability assay, A2058 melanoma cell line; assay type: cell-based; conditions: 48 h; for Viability % CTL A2058 melanoma: Table 1, screened at 10 μM; for Viability % CTL A2058 melanoma (10 μM): Table 4, 10 μM
Experimental: (§1) MTS assays were performed for cell viability. To determine if novel pyridopyrazine derivatives have antitumor activities, compounds were screened at 10 μM final concentration with A2058 melanoma and DU145 prostate cancer cell lines. Compounds #16 and #17 were selected to determine IC50 values against lung cancer cell lines, including A549, DMS273, H69, H513, H2461, DMS114, H358 and H2596. In this assay, cells (5000/well) were seeded in 96-well plates, incubated overnight at 37° C. in 5% CO2, and exposed to 10 μM of compounds or in a dose-dependent manner for 48 h. After 48 h treatment with compounds, MTS dye (20 μL/well) was added to 96-well plates. Viable cell numbers were determined by tetrazolium conversion to its formazan dye. Absorbance was measured at 490 nm using an automated ELISA plate reader. Dimethyl sulfoxide (DMSO) was used as the vehicle control. Each experiment was conducted in triplicate. IC50 values were determined using CalcuSyn software (Biosoft).

[2] = test system: DU145 prostate cancer; test: MTS cell viability assay, DU145 prostate cancer cell line; assay type: cell-based; conditions: DU145 prostate, 48 h; for Viability % CTL DU145 prostate: Table 1, screened at 10 μM; for Viability % CTL DU145 prostate (10 μM ): Table 4
Experimental: as §1

SMILES	Viability % CTL A2058 melanoma [1]	Viability % CTL DU145 prostate [2]	also measured
CSc1ccc(NC(=O)Nc2cc3ncc(Sc4ccccc4)nc3nc2C)cc1 [Compound 19B]	89 % CTL	113 % CTL	–
COc1cc(Nc2cnc3cc(NC(=O)Nc4cccc(C(F)(F)F)c4)c(C)nc3n2)cc(OC)c1OC [Compound 34, 1-(6-Methyl-3-((3,4,5-trimethoxyphenyl)amino)pyrido[2,3-b]pyrazin-7-yl)-3-(3-(trifluoromethyl)phenyl)urea]	–	–	Viability % CTL A2058 melanoma (10 μM) [1]: 116 % CTL; Viability % CTL DU145 prostate (10 μM ) ([2]; 10 μM): 81 % CTL
Cc1nc2nc(Oc3ccccc3)cnc2cc1[N+](=O)[O-] [Compound 55C]	91 % CTL	95 % CTL	–
Cc1nc2nc(Nc3ccc(C(=O)O)cc3)cnc2cc1NC(=O)Nc1cccc(C(F)(F)F)c1 [Compound 36, 4-((6-Methyl-7-(3-(3-(trifluoromethyl)phenyl)ureido)pyrido[2,3-b]pyrazin-3-yl)amino)benzoic acid]	–	–	Viability % CTL A2058 melanoma (10 μM) [1]: 113 % CTL; Viability % CTL DU145 prostate (10 μM ) ([2]; 10 μM): 77 % CTL
Cc1nc2nccnc2cc1NC(=O)CN1CCN(C)CC1 [Compound 13A]	94 % CTL	86 % CTL	–
Cc1nc2nc(Nc3ccccc3)cnc2cc1NC(=O)CN1CCN(C)CC1 [Compound 25E]	–	–	Viability (% CTL) at 10 μM A2058 melanoma ([1]; Table 2, 10 μM): 85 % CTL; Viability (% CTL) at 10 μM DU145 prostate ([2]; Table 2, 10 μM): 83 % CTL
Cc1nc2nc(Oc3ccccc3)cnc2cc1N [Compound 56D]	81 % CTL	108 % CTL	–
Cc1nc2nccnc2cc1NC(=O)c1ccc([N+](=O)[O-])cc1 [Compound 11A]	87 % CTL	106 % CTL	–
Cc1nc2nc(Nc3ccccc3)cnc2cc1NC(=O)Nc1ccc(Cl)cc1Cl [Compound 19, 1-(2,4-Dichlorophenyl)-3-(6-methyl-3-(phenylamino)pyrido[2,3-b]pyrazin-7-yl)urea]	–	–	Viability % CTL A2058 melanoma (10 μM) [1]: 60 % CTL; Viability % CTL DU145 prostate (10 μM ) ([2]; 10 μM): 50 % CTL
Cc1nc2nc(Nc3ccc(C(=O)O)cc3)cnc2cc1NC(=O)Nc1ccc(F)c(Cl)c1 [Compound 35, 4-((7-(3-(3-Chloro-4-fluorophenyl)ureido)-6-methylpyrido[2,3-b]pyrazin-3-yl)amino)benzoic acid]	–	–	Viability % CTL A2058 melanoma (10 μM) [1]: 98 % CTL; Viability % CTL DU145 prostate (10 μM ) ([2]; 10 μM): 82 % CTL
Cc1nc2nc(Nc3ccccc3)cnc2cc1NC(=O)c1cccc(C(F)(F)F)c1 [Compound 12, N-(6-Methyl-3-(phenylamino)pyrido[2,3-b]pyrazin-7-yl)-3-(trifluoromethyl)benzamide]	69 % CTL	93 % CTL	–
Cc1nc2nc(Oc3ccccc3)cnc2cc1NC(=O)Nc1ccccc1 [Compound 57C]	94 % CTL	126 % CTL	–
Cc1nc2nc(Sc3ccccc3)cnc2cc1NC(=O)c1ccccc1C(F)(F)F [Compound 16B]	84 % CTL	120 % CTL	–
Cc1nc2nccnc2cc1NC(=S)NCc1ccccc1 [Compound 18A]	74 % CTL	89 % CTL	–
Cc1nc2nc(Sc3ccccc3)cnc2cc1NC(=O)c1cccc(C(F)(F)F)c1 [Compound 15B]	61 % CTL	113 % CTL	–
Cc1nc2nccnc2cc1NC(=O)c1ccc(N)cc1 [Compound 12A]	84 % CTL	99 % CTL	–
CC(=O)Nc1ccc(Nc2cnc3cc(NC(=O)Nc4ccc(F)c(Cl)c4)c(C)nc3n2)cc1 [Compound 32, N-(4-((7-(3-(3-Chloro-4-fluorophenyl)ureido)-6-methylpyrido[2,3-b]pyrazin-3-yl)amino)phenyl)acetamide]	–	–	Viability % CTL A2058 melanoma (10 μM) [1]: 65 % CTL; Viability % CTL DU145 prostate (10 μM ) ([2]; 10 μM): 76 % CTL
Cc1nc2nccnc2cc1NC(=O)Nc1cccc(C(F)(F)F)c1 [Compound 17A]	79 % CTL	98 % CTL	–
